Experimental data: patent US7671057B2, “Therapeutic agent for type II diabetes comprising protease-inhibiting compound” (Ono Pharmaceutical Co., Ltd., priority 2004, dated 2010)

What was measured:
KK-A^y/Ta Jcl mice [1] = experiment: Blood-sugar level at satiety, dose-ranging food admixture up to Day 28 (Example 3); assay type: in vivo, mouse; conditions: for Blood-sugar level: end of the test (Day 28)
Experimental: KK-A^y/Ta Jcl Mice (male, 6-weeks aged, the number of cases; 8 animals) were treated through individual administration, in the form of an admixture with a food, of the Test Compound 2 (N-allyl-N-{(2E)-3-[4-({4-[amino(imino)methyl]phenoxy}-carbonyl)phenyl]-2-methyl-2-propenoyl}glycine/dimethanesulfonate) of the present invention at the daily doses of 0.56 mg, 1.68 mg, 5.6 mg and 16.8 mg/100 g-food, respectively, and the Control Compound 1 (5-{4-[2-(5-ethylpyridine-2-yl)-ethoxy]benzyl}-1,3-thiazolidine-2,4-dion; pioglitazone) at the daily doses of 5.6 mg and 16.8 mg/100 g-food, respectively, […], whereby the control group was fed with an ordinary food alone.
Blood was drawn from the tail vein individually on the day preceding to administration of each compound in the form of an admixture with a food, and on Days 6, 11, 16, 21 and 28 of administration.
The blood samples taken from the tail vein on the respective specified days after the administration were subjected to measurement of the blood-sugar level in accordance with the method as described in Example 1, while the plasma glucagon level after the forced oral administration performed on Days 28 was measured in accordance with the ELISA method as described in Example 1. Also, the glycosylated hemoglobin (HbA1c) and GLP-1 levels were determined in accordance with the latex coagulation method and the ELISA method (YK160, GLP-1 EIA Kit, produced by K.K. Yanaihara Kenkyu-sho of Japan), respectively, while the TG level was measured in accordance with the method as described in Example 1. The total pancreatic insulin content after oral administration of each compound was determined by adding 75% ethanol to the isolated pancreas as frozen, followed by homogenization, and collecting the insulin fraction through Sep-Pak (C18; WATER) treatment of the supernatant liquid produced by centrifugation, followed by determination with the ELIZA method.

KK-A^y/Ta Jcl mice [2] = experiment: Glucose loading test after repeated administration for 14 days (Example 1); assay type: in vivo, mouse
Experimental: As from Day 14 afterwards, the animals after being fasted for 18 hours or more were loaded orally with a glucose solution (2 g/kg, 10 mL/kg), whereby the blood-sugar levels were measured before, and 120 min. after, the said glucose loading. Each of the compounds was given orally to the animals 3 hours prior to the glucose loading, and the whole blood was drawn from each of the animals under anesthesia. Each of the said blood samples was centrifuged to yield a blood plasma, and the resultant blood plasmas were all preserved under freezing in a ultra-low-temperature freezer for subsequent use in the below-described measurements.
The blood-sugar level, total cholesterol level (hereinafter referred to briefly as “TC level”) and triglyceride level (hereinafter referred to briefly as “TG level”) were detected individually in accordance with the hexokinase/G-6-PDH method, enzyme method and GPO/HDAOS method, and measured with use of Biochemical Auto-Analyzer (Model AU 400, manufactured by Olympus Co. of Japan). The plasma insulin level (hereinafter referred to briefly as “IRI level”) and the plasma glucagon level (hereinafter referred to briefly as “IRG level”) were detected individually with the ELISA method (Lebisinsulin Mouse Insulin Kit, produced by K.K. Shibayagi of Japan) and the ELISA method (YK090 Glucagon EIA Kit, produced by K.K. Yanaihara Kenkyuu-sho of Japan), followed by measurement with use of a plate reader (Immuno Mini NJ-2300, Nalge Nunc International K.K. of Japan).
The blood-sugar, TC, TG, IRI and IRG levels and the body weight were expressed as a mean value±standard deviation as calculated for each group of animals. With reference to the significance test between the group treated through administration of the medium and each group treated through administration of the compound, the F test was effected to analyze the data and then, the Student's t-test and Aspin-Welch's t-test were used in cases where the variance between the two groups was determined to be equal and unequal, respectively. Referring to the significance level, less than 5% (p<0.05) was considered significant, and the significance level was expressed as divided into the two events of less than 1% (**: p<0.01) and less than 5% (*: p<0.05).

CCc1ccc(CCOc2ccc(CC3SC(=O)NC3=O)cc2)nc1 (stereo not shown) [Control Compound 1, 5-{4-[2-(5-ethylpyridine-2-yl)ethoxy]benzyl}-1,3-thiazolidine-2,4-dione, reference compound]
Blood-sugar lowering effect at the end of the test (Day 28) (in words) (KK-A^y/Ta Jcl mice [1]; 16.8 mg/100 g group): no blood-sugar lowering effect observed | Time-course changes in blood-sugar level at satiety vs Control Group (in words, FIG. 1) (KK-A^y/Ta Jcl mice [1]; 16.8 mg/100 g group): significant drops in blood-sugar level on Days 6 and 11 | Blood-sugar level (KK-A^y/Ta Jcl mice [1]; Dose 5.6 (g/100 g-food)): 561.6 ± 28.2 mg/dL | Blood-sugar level (KK-A^y/Ta Jcl mice [1]; Dose 16.8 (g/100 g-food)): 497.0 ± 26.8 mg/dL | Blood-sugar level before glucose loading (KK-A^y/Ta Jcl mice [2]; after 14 days 30 mg/kg p.o., fasted, compound 3 hours prior to loading): 156.9 ± 5.3 mg/dL | Blood-sugar level 120 Min. after glucose loading (KK-A^y/Ta Jcl mice [2]; after 14 days 30 mg/kg p.o., glucose 2 g/kg orally): 236.9 ± 19.6 mg/dL | Blood-sugar lowering action in the glucose loading test vs medium control group (in words) (KK-A^y/Ta Jcl mice [2]; after repeated administration for 14 consecutive days): not observed to produce any significant difference
